Source: ChEMBL document CHEMBL1201862, “PubChem BioAssay data set” (2004)
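96-well plates; 48 h exposure; 5 concentrations. Endpoints by linear interpolation between flanking doses. Not reached: highest tested concentration assigned. GI50 marks 50% less growth.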 The source made the active and inactive calls. Cut-off read from the data, not from the text of the source: active = GI50 up to about 1.1 µM and inactive = higher.

Key:
Assay in all cases: DTP human tumour cell line panel, 48 h
SNB-19 = system: SNB-19
HT-29 = system: HT-29
SF-539 = system: SF-539
SF-268 = system: SF-268
UACC-257 = system: UACC-257
HL-60 = system: HL-60
CAKI-1 = system: CAKI-1
M14 = system: M14
KM12 = system: KM12
U-251 = system: U-251
OVCAR-4 = system: OVCAR-4
IGROV-1 = system: IGROV-1
SNB-75 = system: SNB-75
EKVX = system: EKVX
UACC-62 = system: UACC-62
A549 = system: A549
LXFL 529 = system: LXFL 529
SK-MEL-28 = system: SK-MEL-28
SW-620 = system: SW-620
MDA-MB-231 = system: MDA-MB-231

Measured: GI50

O=C1[C@H]2ON(c3ccccc3)C(c3ccc(Cl)cc3Cl)[C@H]2C(=O)N1c1ccc(Cc2ccc(N3C(=O)[C@@H]4ON(c5ccccc5)C(c5ccc(Cl)cc5Cl)[C@@H]4C3=O)cc2)cc1 (some centres not stated)
inactive: SNB-19 > 100 µM | HT-29 > 100 µM | SF-539 > 100 µM | SF-268 > 100 µM | UACC-257 > 100 µM | HL-60 > 100 µM | CAKI-1 > 100 µM | M14 19.6 µM | KM12 > 100 µM | U-251 > 100 µM | OVCAR-4 > 100 µM | IGROV-1 > 100 µM | SNB-75 > 100 µM | EKVX > 100 µM | UACC-62 > 100 µM | A549 > 100 µM | LXFL 529 > 100 µM | SK-MEL-28 > 100 µM | SW-620 > 100 µM

NC(Cc1ccc2oc3cc(=O)c4ccccc4c-3nc2c1)C(=O)O (configuration not stated)
inactive: SNB-19 22.3 µM | HT-29 28.7 µM | SF-539 20.3 µM | SF-268 43 µM | UACC-257 20.5 µM | HL-60 40.8 µM | CAKI-1 > 79.4 µM | M14 12.5 µM | KM12 39.2 µM | MDA-MB-231 > 79.6 µM | U-251 26.2 µM | OVCAR-4 67.5 µM | IGROV-1 68.2 µM | SNB-75 11.2 µM | EKVX > 83.4 µM | UACC-62 11.7 µM | A549 16.7 µM | LXFL 529 55.5 µM | SK-MEL-28 25.8 µM | SW-620 29.3 µM

Clc1ccc(-n2nnc(C3=NCCN3)c2-c2ccccc2)cc1
inactive: SNB-19 > 100 µM | HT-29 > 100 µM | SF-539 > 100 µM | SF-268 > 100 µM | UACC-257 > 100 µM | HL-60 > 100 µM | CAKI-1 > 100 µM | M14 > 100 µM | KM12 > 100 µM | U-251 > 100 µM | OVCAR-4 > 100 µM | IGROV-1 > 100 µM | SNB-75 47.3 µM | EKVX > 100 µM | UACC-62 > 100 µM | A549 > 100 µM | LXFL 529 > 100 µM | SK-MEL-28 > 100 µM | SW-620 > 100 µM

COc1cccc2c1C1(O)C2CCCCCCCCCC12OCCCO2 (configuration not stated)
inactive: SNB-19 27.7 µM | HT-29 10.8 µM | SF-539 8.38 µM | SF-268 9.82 µM | UACC-257 > 69.2 µM | HL-60 5.66 µM | CAKI-1 > 100 µM | M14 > 58.1 µM | KM12 > 38 µM | MDA-MB-231 33 µM | U-251 8.63 µM | OVCAR-4 > 100 µM | IGROV-1 41.3 µM | SNB-75 > 44.1 µM | UACC-62 > 100 µM | A549 > 34.5 µM | LXFL 529 45.6 µM | SK-MEL-28 > 100 µM | SW-620 > 46.7 µM
